What was measured:
PBMCs = assay: TNFα production by PBMCs with antigen-expressing tumor cells (AlphaLISA); type: cell-based, human; details: PBMCs with SKBR3 tumor cells (HER2), 24 hours, FIG. 20
Description: Anti-HER2-antiCD40 G1 antibody was prepared as described in Example 18. Pertuzumab was used as the HER2 G1WT antibody. Conjugates were prepared as generally described in Example 15. PBMCs were isolated from human blood as described above. Briefly, PBMCs were isolated by Ficoll gradient centrifugation, resuspended in RPMI, and plated in 96-well flat bottom microtiter plates (125,000/well). Antigen-expressing tumor cells were then added (25,000/well) along with titrating concentrations of conjugates or unconjugated parental antibodies as controls. After overnight culture, supernatants were harvested, and TNFα levels were determined by AlphaLISA.
Referring to FIG. 20, SKBR3 tumor cells were added to PBMCs, prepared as described above. SKBR3 tumor cells express the tumor antigen HER2. Anti-HER2 TLR8 benzazepine agonist conjugates, either monospecific or bispecific with CD40, and conjugated to various TLR8 benzazepine agonists were added. The immune-stimulatory compound-linkers in the conjugates used in the study are identified in TABLES 30 and 31.

monocytes = assay: TNFα production by monocytes with or without tumor cells (AlphaLISA); type: cell-based, human; details: monocytes with CEA-expressing CHO cells, FIG. 22
Description: Monocytes were prepared as follows: PBMCs were isolated from normal human blood using Ficoll purification, and monocytes were enriched from the PBMCs using Stem Cell Technologies Human Monocyte without CD16 Depletion Negative Selection Kits according to the manufacturer's instructions. Monocytes were then slowly frozen and stored in liquid nitrogen. Prior to assay monocytes were thawed and rested overnight at 37° C. in 5% CO2 in assay media (RPMI 1640 media supplemented with 10% FBS, […], 1 mM HEPES, 1× non-essential amino acids, 0.1 mM sodium pyruvate). The following day, monocytes were plated at 4×10^4 cell/well with or without tumor cells at 4×10^4 cell/well in 96-well flat bottom plates in assay media described above. After overnight culture, supernatants were harvested, and TNFα levels were determined by AlphaLISA.

Pertuzumab [HER2 G1WT, reference compound]
TNFα production (PBMCs): did not stimulate TNFα production | TNFα production (monocytes): only the CEA conjugate exhibited activity
